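Test compounds were applied to cells in 96-well plates for 48 hours at 5 doses. The concentration for 50% growth inhibition is given as GI50.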 The source made the active and inactive calls. Cut-off read from the data, not from the text of the source: active = GI50 up to about 1.1 µM and inactive = higher.
How the values were obtained:
Test in all cases: DTP human tumour cell line panel, 48 h
SNB-19 = test system: SNB-19
OVCAR-8 = test system: OVCAR-8
HT-29 = test system: HT-29
SF-295 = test system: SF-295
MOLT-4 = test system: MOLT-4
SK-OV-3 = test system: SK-OV-3
HCT-15 = test system: HCT-15
CCRF-CEM = test system: CCRF-CEM
NCI-H23 = test system: NCI-H23
NCI-H460 = test system: NCI-H460
A549 = test system: A549
HL-60 = test system: HL-60
SK-MEL-5 = test system: SK-MEL-5
K562 = test system: K562
SW-620 = test system: SW-620
UO-31 = test system: UO-31
SN12C = test system: SN12C
U-251 = test system: U-251
KM12 = test system: KM12
SNB-75 = test system: SNB-75

Row | Structure (SMILES) | GI50 (SNB-19) | GI50 (OVCAR-8) | GI50 (HT-29) | GI50 (SF-295) | GI50 (MOLT-4) | GI50 (SK-OV-3) | GI50 (HCT-15) [µM] | GI50 (CCRF-CEM) | GI50 (NCI-H23) | GI50 (NCI-H460) | GI50 (A549) | GI50 (HL-60) | GI50 (SK-MEL-5) | GI50 (K562) | GI50 (SW-620) | GI50 (UO-31) | GI50 (SN12C) | GI50 (U-251) | GI50 (KM12) | GI50 (SNB-75)
1 | O=C(O)Cc1cc(F)ccc1C(=O)O | > 100 µM (inactive) | > 100 µM (inactive) | > 100 µM (inactive) | > 100 µM (inactive) | > 100 µM (inactive) | > 100 µM (inactive) | 73.5 | > 100 µM (inactive) | > 100 µM (inactive) | > 100 µM (inactive) | > 100 µM (inactive) | > 100 µM (inactive) | > 100 µM (inactive) | > 100 µM (inactive) | > 100 µM (inactive) | > 100 µM (inactive) | > 100 µM (inactive) | > 100 µM (inactive) | > 100 µM (inactive) | 80.4 µM (inactive)
2 | Cc1ccc(Nc2nc3ccccc3nc2NS(=O)(=O)c2ccc(N)cc2)cc1 | 31.1 µM (inactive) | 81.8 µM (inactive) | 68.4 µM (inactive) | 46.7 µM (inactive) | 15.6 µM (inactive) | > 100 µM (inactive) | 49.8 | 18.4 µM (inactive) | 3.2 µM (inactive) | 4.89 µM (inactive) | 34.5 µM (inactive) | 21.9 µM (inactive) | 39.2 µM (inactive) | 31.5 µM (inactive) | 20.4 µM (inactive) | 21.5 µM (inactive) | 48.3 µM (inactive) | 30.2 µM (inactive) | 23.5 µM (inactive) | 84.9 µM (inactive)
3 | CN(C)CCNC(=O)c1cccc2ccc(-c3ccc(F)cc3)nc12 | 6.87 µM (inactive) | 3.3 µM (inactive) | 3.3 µM (inactive) | 5.7 µM (inactive) | 1.94 µM (inactive) | 7.62 µM (inactive) | 3.85 | 2.86 µM (inactive) | 4.47 µM (inactive) | 2.86 µM (inactive) | 3.13 µM (inactive) | 2.29 µM (inactive) | 3.34 µM (inactive) | 2.93 µM (inactive) | 3.08 µM (inactive) | 2.61 µM (inactive) | 4.85 µM (inactive) | 6.19 µM (inactive) | 6.67 µM (inactive) | 6.95 µM (inactive)
4 | c1ccc(NN/N=N/c2ccc(-c3nc4ccccc4[nH]3)cc2)cc1 | > 100 µM (inactive) | 36 µM (inactive) | 25 µM (inactive) | 25.6 µM (inactive) | 14.5 µM (inactive) | > 100 µM (inactive) | 13 | 20.7 µM (inactive) | 32.5 µM (inactive) | 27 µM (inactive) | 37 µM (inactive) | 22 µM (inactive) | 29 µM (inactive) | 8.43 µM (inactive) | 52.4 µM (inactive) | 34.5 µM (inactive) | 32.2 µM (inactive) | 40.4 µM (inactive) | 19.5 µM (inactive) | 23.8 µM (inactive)
5 | C[N+](C)([O-])CCOc1cc2c(c3ccccc13)-c1ccccc1C2=O | 13.6 µM (inactive) | 6.27 µM (inactive) | 7.46 µM (inactive) | 4.63 µM (inactive) | 3.46 µM (inactive) | 35.4 µM (inactive) | 28.2 | 8.2 µM (inactive) | 21.5 µM (inactive) | 9.44 µM (inactive) | 23.3 µM (inactive) | 14.3 µM (inactive) | 14.4 µM (inactive) | 15.8 µM (inactive) | 12.3 µM (inactive) | 17.8 µM (inactive) | 9.08 µM (inactive) | 13.3 µM (inactive) | 13.6 µM (inactive) | 17.5 µM (inactive)

Reference: ChEMBL document CHEMBL1201862, “PubChem BioAssay data set” (2004)
